Earlier results on one compound are cited in US20030162756A1, “Use of 2-hydroxy or 2-acetyloxy-4-trifluoromethylbenzoic acid derivatives as an agent for the treatment and prevention of mild cognitive impairment” (J. Uriach & CIA. S.A., priority 2001, published 2003).

For the data set, the system named is platelet aggregation. The following applies: described in U.S. Pat. No. 4,096,252; cited from earlier work.

Structures are written as SMILES.

`O=C(O)c1ccc(C(F)(F)F)cc1O` [HTB, 2-hydroxy-4-trifluoromethylbenzoic acid]: the “activity as platelet anti-aggregant” value is “remarkable activity as platelet anti-aggregant”.
